From patent publication US8247183B2, “Compositions and methods for diagnosis and treatment of tumors” (The United States of America, as represented by the …, priority 2006, dated 2012)

How the values were obtained:
[1] = molecular target: T1, Human MMP-9 (Homo sapiens, UniProt P14780); assay: OPN cleavage assay with MMP-9 and MMP inhibitors; type: biochemical; conditions: Western blot after 1-hour digestion at 37° C.; EDTA 10 mM, MMP-9 inhibitor I 2 μM, TIMP-1 0.1 μM
T1 construct: purchased Calbiochem, CA
Description: OPN cleavage assays were performed as follows. Human MMP-9 (Calbiochem, CA) was incubated at 37° C. for 3 hours with recombinant human OPN (R&D systems, MN) at an optimized ratio (5:1 substrate:enzyme) in a buffered solution (200 mM NaCl, 5 mM CaCl, 50 mM Tris-C1, pH 7.5). Digested OPN was analyzed by 16% tris-glycine SDS-PAGE followed by colloidal coomassie blue staining (SimplyBlue™, Invitrogen, CA). Separate cleavage reactions (2 μg OPN) were transferred to PDVF membranes for amino-end terminal microsequencing.
For western blot analysis, MMP-9-digested OPN samples and whole cell lysates (50 μg) were transferred to 0.22 um PVDF membranes and probed with a polyclonal antibody generated to a 14-residue peptide just downstream of the residue 169 thrombin cleavage site ([sequence]; amino acids 169-183 of SEQ ID NO: 2) (Abcam, MA). HEK-293 cell lysates were probed with an anti-FLAG antibody (Sigma, Mo.). Immuno-reactive proteins were detected by chemilluminescence (ECL, GE Healthcare Life Sciences, NJ).

[2] = tested on: SMMC-7721 SC2 cells; assay: Matrigel invasion assay with short overlapping peptides of OPN-5kD; type: cell-based, human; conditions: 36 hours; for effect on OPN-5kD induced invasion, separate addition: in conjunction with OPN-5kD, 1:1 molar, 2 μM each; for cellular invasion relative to media alone treated cells: peptide alone, 2 μM, p<0.05
Description: A 44 residue peptide corresponding to the OPN-5kD fragment (SEQ ID NO: 4), was synthesized and purified >97% by HPLC (EZBiolabs, IN). A series of short peptides spanning the region of residues 167-210 of OPN (SEQ ID NO: 2) were generated as follows. Eight small overlapping peptides spanning the OPN-5kD peptide were similarly synthesized to >75% purity (p1=[…], amino acids 167-176 of SEQ ID NO: 2; p2=[…], amino acids 172-181 of SEQ ID NO: 2; p3=[…], amino acids 177-186 of SEQ ID NO: 2; p4=[…], amino acids 182-191 of SEQ ID NO: 2; p5=[…], amino acids 187-196 of SEQ ID NO: 2; p6=[…], amino acids 192-201 of SEQ ID NO: 2; p7=[…], amino acids 197-206 of SEQ ID NO: 2; and p8=[…] amino acids 202-210 of SEQ ID NO: 2) (EZBiolabs, IN). The lyophilized peptides were resuspended in PBS and applied with cells to the upper wells of Matrigel invasion chambers at equal molar concentrations (2 μM). Invading cells were measured after 36 hours following calcein incorporation as described in the examples above.

[3] = tested on: SMMC-7721-SC2 cells; assay: Cellular adhesion with exogenous intact or MMP-9 cleaved OPN; type: cell-based, human; conditions: GRGDS peptide 400 μM; OPN 250 nM
Description: Cellular adhesion was measured using the following methods. SMMC-7721-SC2 cells were seeded into the wells of a 96-well fluorescent-read plate in serum-free media (6×10^4 cells/well) with human OPN (0-250 nM) with or without prior digestion by MMP-9. Media and MMP-9 alone treated cells were included as controls. A GRGDS blocking peptide (400 μM) was added to separate media control, intact OPN, and MMP-9 cleaved OPN (250 nM) conditions. Non-adherent cells were removed with a PBS wash (100 μl) after one hour and adherent cells were quantified by CyQuant GR dye incorporation (Molecular Probes, OR) and detection at EX485, EM530.

[4] = tested on: SMMC-7721-SC2 cells; assay: Adhesion of cells transfected with OPN expression constructs; type: cell-based, human; conditions: 30-60 minutes
Description: To determine the affect of OPN fragments on adhesion, the following methods were used. SMMC-7721-SC2 cells (1×10^6) were trypsinized (E-PET, Biosource, CA) and transfected with the four OPN expression constructs shown in FIG. 3A and empty vector DNA (5 μg) (50-60% efficiency) using optimized conditions (Nucleofection, AMAXA, MD) and plated to 6-well plates. After a 24-hour recovery period, the cells were trypsinized and seeded by equal numbers (6×10^4) into fluorescent-read 96-well plates in serum-free media. Non-adherent cells were removed with a PBS wash after 2-60 minutes and fluorescence was quantified at EX485, EM530.

[5] = tested on: SMMC-7721-SC2 cells; assay: Migration assay of cells transfected with OPN constructs; type: cell-based, human; conditions: vector controls, 24, 36, 48 hours
Description: (§1) Migration and invasion assays were performed as follows. Transfected SMMC-7721-SC2 cells (transfected with 5 μg plasmid DNA) were allowed to recover in 5% serum containing media and were re-counted prior to dilution in serum-free media. Cells were seeded (5×10^4) into the upper chambers of Matrigel coated 8 um pore membranes (HTSTM Fluoroblok tumor invasion system, BD Biosciences, MA) or uncoated […] pore membranes (HTSTM Fluoroblok insert system, BD Biosciences, MA). Media containing serum (5%) was added to the lower chambers as a chemotactic agent. Blocking antibodies to either the integrin αVβ3 receptor (clone LM609, Chemicon, CA) or a common determinant of the CD44 receptors (clone A020, Calbiochem, CA) were added to the upper chambers (4 μg/ml) at the time of cell seeding. Migrated cells were labeled with calcein AM (Molecular Probes, OR) at 37° C. for 1 hour, and fluorescence was measured at 24, 36, and 48 hours (EX 490 nm, EM 530 nm).

[6] = tested on: SMMC-7721-SC2 cells; assay: Matrigel invasion assay (OPN constructs, blocking antibodies, OPN-5kD peptide); type: cell-based, human; conditions: 36 hours
Description: as §1
Cell invasion was measured as described in Example 4. Briefly, each of the OPN vectors shown in FIG. 3A (5 μg) were separately transfected into SMMC-7721 cells (1×10^6) using optimized conditions (Nucleofection, AMAXA). […] After 36 hours, the invaded cells were labeled with calcein at 37° C. for 1 hour and fluorescence was measured (EX485, EM530).
To determine the effect of blocking antibodies to the integrin aV133 and CD44 receptors on the affect of invasion of HCC cells expression OPN full-length or OPN-5 kD, integrin αVβ3 (Chemicon, CA) or CD44 (Calbiochem, CA) blocking antibodies were added (4 μg/ml) to cells transiently expressing OPN full-length and OPN-5kD. Invading cells were measured at 36 hours following calcein incorporation as described above.
To determine the effect of varying concentrations of the OPN-5kD peptide on invasion of HCC cells, SMMC-7721 cells were exposed to increasing concentrations of the OPN-5kD peptide (0.4 μM, 1 μM and 2 μM) and invading cells were measured after 36 hours following calcein incorporation as described above. […]

T1 sequence (P14780 94-707): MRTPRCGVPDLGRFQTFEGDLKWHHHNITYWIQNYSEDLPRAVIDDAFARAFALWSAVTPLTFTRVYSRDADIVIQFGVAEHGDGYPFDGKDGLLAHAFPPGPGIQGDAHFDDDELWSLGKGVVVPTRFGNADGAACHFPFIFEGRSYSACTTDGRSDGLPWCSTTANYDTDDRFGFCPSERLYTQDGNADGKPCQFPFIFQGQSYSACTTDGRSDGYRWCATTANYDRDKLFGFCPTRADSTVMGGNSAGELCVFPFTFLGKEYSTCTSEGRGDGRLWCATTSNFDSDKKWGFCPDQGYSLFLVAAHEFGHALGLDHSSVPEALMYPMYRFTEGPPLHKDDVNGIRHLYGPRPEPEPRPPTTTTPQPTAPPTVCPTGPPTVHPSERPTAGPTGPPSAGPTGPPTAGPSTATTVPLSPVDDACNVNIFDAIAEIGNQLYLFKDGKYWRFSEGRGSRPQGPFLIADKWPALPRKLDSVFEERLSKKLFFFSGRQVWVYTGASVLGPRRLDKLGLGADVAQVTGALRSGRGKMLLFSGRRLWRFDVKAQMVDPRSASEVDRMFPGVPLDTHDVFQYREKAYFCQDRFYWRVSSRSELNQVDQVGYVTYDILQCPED

Molecule	effect on OPN-5kD induced invasion, separate addition [2]	cellular invasion relative to media alone treated cells [2]	adhesion after transient over-expression relative to controls, later time points [4]	SMMC-7721-SC2 migration relative to controls [5]	also measured
O=C(O)CN(CCN(CC(=O)O)CC(=O)O)CC(=O)O [EDTA]	–	–	–	–	inhibition of MMP-9 cleavage of OPN (OPN-5kD fragment detection) [1]: partially inhibited
ELNGAYKAIP (listed as Homo sapiens) [p7]	partial reduction in invasion	suppressive effect	–	–	–
GRGDS [GRGDS peptide]	–	–	–	–	blocking of intact and cleaved OPN-mediated adhesion [3]: blocked both intact and cleaved OPN-mediated adhesion
HMESEELNGA (listed as Homo sapiens) [p6]	partial reduction in invasion	suppressive effect	–	–	–
KKFRRPDIQY (listed as Homo sapiens) [p2]	insignificant effect	–	–	–	–
OPN-5kD: MMP-9 cleavage fragment of OPN, residues 167-210; expressed from FLAG-tagged construct	–	–	decreased adhesion	decreased migration	increase in cellular invasion ([6]; transfected cells, p=0.001): > 2 fold
OPN-24 kD: OPN fragment residues 211-314; expressed from FLAG-tagged construct	–	–	decreased adhesion	decreased migration	cellular invasion compared to vector transfected cells [6]: No significant difference
PDIQYPDATD (listed as Homo sapiens) [p3]	partial reduction in invasion	suppressive effect	–	–	–
full-length OPN: wild-type osteopontin protein (OPN-a) expressed from FLAG-tagged construct	–	–	increased adhesion	induced SMMC-7721-SC2 migration	cellular invasion compared to vector transfected cells [6]: slightly increased invasion
